Results: US20260274832A1, “COMPOUNDS AND THEIR USE IN TREATING CANCER” (ASTRAZENECA AB, priority 2023, published 2026)

What was measured:
[1] = molecular target: T1, AR (AR-full length) in LNCaP cells (Homo sapiens, UniProt P10275, T878A); experiment: LNCaP Androgen Receptor Imaging Assay (immunofluorescence of endogenous nuclear AR); assay type: cell-based; conditions: 24 h incubation; for DC50: concentration giving 50% of maximum degradation of AR per curve fit, single experiment or average of two or more; for Dmax: LNCaP; for Dmax / LNCaP AR Degradation Dmax: maximum degradation observed, normalized as % of positive control (prior art AR PROTAC at 3 μM)
T1 construct: the prostate cancer cell line LNCaP (expressing AR-full length); endogenous in cells; host or cells: LNCaP
Description: This cell-based imaging assay uses immuno-fluorescence to measure endogenous nuclear AR staining in the prostate cancer cell line LNCaP (expressing AR-full length). The purpose of the assay is to identify compounds that regulate AR protein level according to the protocol laid out in the steps below.
(§1) All work was performed in a sterile tissue culture hood up to the point of cell fixation. LNCaP cells were cultured at 6-8×10^6 per T175 flask and split every 3-4 days. Medium: RPMI (R7638, VWR Sigma) containing 10% FCS and 1% glutamine. Cells were plated in black wall transparent bottom plates at a density of 12,000 cells (Cedex™ Cell counter, Beckmann & Coulter), 40 μL per well, using a Multidrop (ThermoFisher).
(§2) Cells were dosed with test compound diluted in DMSO using an Echo 555/655™ (Labcyte) and the final concentration of DMSO in the well was 0.3%. A neutral control (DMSO) and a positive AR degrader control at 3 μM (a prior art AR PROTAC) were included. The Echo uses acoustic technology to perform direct microplate-to-microplate transfers of DMSO compound solutions to assay plates. The system can be programmed to transfer volumes as low as 2.5 nL in multiple increments between microplates and in so doing generates a serial dilution of compound in the assay plate which is then back-filled to normalise the DMSO concentration across the dilution range. Compounds were dispensed as a 12 point dose response with indicated concentrations. The plates were incubated at 37° C./5% CO2 for 24 h and then fixed and stained as below. 40 μL of 8% paraformaldehyde solution (v/v) in phosphate buffered saline (PBS) was added on top of the media already in the well using a Multidrop to fix plates giving a final concentration of 4% PFA (v/v) for 20-30 minutes (keep in fume hood to minimise PFA exposure). After 20-30 mins, the plates were washed with 3×PBS using a BioTek washer in a fume hood. A shake out of remaining volume in the well was performed to ensure best removal of remaining PBS. At this plates could be stored in PBS after washing for at least 3 days at 4° C., if so, PBS was removed by the BioTek before continuing with the next step.
(§3) The cells were incubated with a Mouse monoclonal Anti-AR antibody AR441 (DAKO M3562) (1:1000), diluted in modified blocking buffer (PBS+1% BSA+0.1% TritonX); 15 μL/well for 2 h at RT. The plates were then washed with 3×PBS using a BioTek washer. A shake out of remaining volume in the well was performed to ensure best removal of remaining PBS. Cells were then incubated with Goat anti-mouse secondary antibody 488 (Invitrogen A11001) (1:500) and nuclear stain, DRAQ5 (Abcam Ab108410) (1:2000) diluted in modified blocking buffer for 45 mins at room temperature 15 μL/well. Plates are then washed with 3×PBS using a BioTek washer, without final aspiration, and sealed with black plate seals. Plates could be stored after staining for three days at 4° C. before read if required.
(§4) Plates are read using a Cellomics Cellinsight to measure the Androgen Receptor level in each well. The data is exported into Genedata to perform curve fitting analysis. All data are normalized as % of positive control and the BellFit method automatically determines the correct fit method based on the presence of hook effect, choosing the BellFit when there is a hook and HillFit when there is no hook. Down-regulation of AR is expressed as a DC50 value and determined by calculation of the concentration of compound that is required to give 50% of maximum degradation of AR as per the curve fit for that compound. The maximum degradation observed for each compound is expressed as Dmax. The AR degradation data for compounds is shown in the table below and may be a result from a single experiment or an average of two or more experiments.

[2] = molecular target: T2, AR (L702H) in LNCaP cells (Homo sapiens, UniProt P10275, L702H/T878A); experiment: LNCaP Androgen Receptor L702H Imaging Assay (LNCaP cells engineered by CRISPR/Cas9); assay type: cell-based; conditions: LNCaP cells with AR L702H mutation, 24 h incubation; for DC50: concentration giving 50% of maximum degradation of AR (L702H) per curve fit; for Dmax: LNCaP; for Dmax / LNCaP AR (L702H) Degradation Dmax: maximum degradation observed, normalized as % of positive control
T2 construct: engineered to introduce the mutation L702H into the AR gene using CRISPR/Cas9; endogenous in cells; host or cells: LNCaP cells edited by CRISPR/Cas9 at the AR gene
Description: as §1, §2, §3, §4
At this stage, anti-androgen therapy is largely ineffective due to AR amplification, overexpression or point mutation. One of the point mutations observed in patient populations is L702H in the AR Ligand Binding Domain. LNCAP cells have been engineered to introduce the mutation L702H into the AR gene using CRISPR/Cas9. The previously described imaging-based AR assay will monitor nuclear AR (L702H) levels in these cells to identify compounds that regulate AR (L702H). […]

T1 sequence (P10275 whole entry T878A): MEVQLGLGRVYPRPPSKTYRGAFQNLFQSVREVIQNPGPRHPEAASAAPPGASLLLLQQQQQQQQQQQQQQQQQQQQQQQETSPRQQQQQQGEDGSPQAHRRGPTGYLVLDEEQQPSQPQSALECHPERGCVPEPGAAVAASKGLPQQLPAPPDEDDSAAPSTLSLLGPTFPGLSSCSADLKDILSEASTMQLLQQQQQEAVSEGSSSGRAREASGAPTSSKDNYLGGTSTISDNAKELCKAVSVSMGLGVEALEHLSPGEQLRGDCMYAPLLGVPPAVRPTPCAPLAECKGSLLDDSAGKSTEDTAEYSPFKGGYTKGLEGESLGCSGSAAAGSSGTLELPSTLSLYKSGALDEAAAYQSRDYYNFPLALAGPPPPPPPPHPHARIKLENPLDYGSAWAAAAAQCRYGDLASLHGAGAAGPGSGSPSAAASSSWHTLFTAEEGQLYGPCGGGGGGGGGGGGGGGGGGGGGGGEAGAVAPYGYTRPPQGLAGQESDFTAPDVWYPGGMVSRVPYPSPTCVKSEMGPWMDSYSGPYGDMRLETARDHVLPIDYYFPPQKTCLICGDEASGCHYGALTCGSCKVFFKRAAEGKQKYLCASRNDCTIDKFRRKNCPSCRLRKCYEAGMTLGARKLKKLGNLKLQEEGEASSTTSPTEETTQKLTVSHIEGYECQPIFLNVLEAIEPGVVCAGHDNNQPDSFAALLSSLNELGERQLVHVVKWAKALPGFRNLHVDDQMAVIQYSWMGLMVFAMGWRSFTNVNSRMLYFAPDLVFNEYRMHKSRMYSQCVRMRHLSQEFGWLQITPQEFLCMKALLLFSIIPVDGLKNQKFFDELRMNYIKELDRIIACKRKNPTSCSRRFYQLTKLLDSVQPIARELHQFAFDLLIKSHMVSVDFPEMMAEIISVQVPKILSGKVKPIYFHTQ
T1 sequence (Q96SW2 whole entry partner): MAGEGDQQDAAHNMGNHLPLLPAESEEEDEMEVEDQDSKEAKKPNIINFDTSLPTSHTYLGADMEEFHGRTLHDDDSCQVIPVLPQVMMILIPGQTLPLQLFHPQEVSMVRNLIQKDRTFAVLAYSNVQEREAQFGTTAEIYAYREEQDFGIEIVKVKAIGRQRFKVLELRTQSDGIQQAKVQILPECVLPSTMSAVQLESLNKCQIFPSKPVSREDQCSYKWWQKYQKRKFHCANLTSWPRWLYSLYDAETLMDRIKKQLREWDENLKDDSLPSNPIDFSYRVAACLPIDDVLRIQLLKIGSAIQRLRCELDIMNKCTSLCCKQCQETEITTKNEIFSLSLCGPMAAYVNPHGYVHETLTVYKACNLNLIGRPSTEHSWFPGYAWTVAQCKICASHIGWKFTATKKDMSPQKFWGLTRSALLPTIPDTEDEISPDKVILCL
T2 sequence (P10275 whole entry L702H/T878A): as the sequence (P10275 whole entry T878A) above, with L702H counted along it
T2 sequence (Q96SW2 whole entry partner): as the sequence (Q96SW2 whole entry partner) above

Row | Compound | DC50 [1] | Dmax [1] | DC50 [2] | Dmax [2] | LNCaP AR Degradation Dmax [1] | LNCaP AR (L702H) Degradation Dmax [2]
1 | N#Cc1c[nH]c2c(C3CCCN(c4ccc(N5CCC(CN6CCN(c7ccc8c(c7)CN(C7CCC(=O)NC7=O)C8=O)CC6)CC5)cc4)C3)ccc(Cl)c12 (single isomer, unassigned) [Example 93, 4-Chloro-7-[(3R*)-1-{4-[4-({4-[2-(2,6-dioxopiperidin-3-yl)-1-oxo-2,3-dihydro-1H-isoindol-5-yl]piperazin-1-yl}methyl)piperidin-1-yl]phenyl}piperidin-3-yl]-1H-indole-3-carbonitrile] | 20 nM | 87% | 11 nM | 95% | – | –
2 | N#Cc1c[nH]c2c(C3CCCN(c4ccc(C5CCN(CC6CCN(c7ccc8c(c7)CN(C7CCC(=O)NC7=O)C8=O)CC6)CC5)cc4)C3)ccc(Cl)c12 (single isomer, unassigned) [Example 96, 4-Chloro-7-[(3R*)-1-{4-[1-({1-[2-(2,6-dioxopiperidin-3-yl)-1-oxo-2,3-dihydro-1H-isoindol-5-yl]piperidin-4-yl}methyl)piperidin-4-yl]phenyl}piperidin-3-yl]-1H-indole-3-carbonitrile] | 31 nM | 54% | 12 nM | 95% | – | –
3 | N#Cc1c[nH]c2c(C3CCCN(c4ccc(C5CCN(CC6CCN(c7ccc8c(c7)CN(C7CCC(=O)NC7=O)C8=O)CC6)CC5)cc4)C3)ccc(Cl)c12 (single isomer, unassigned) [Example 97, 4-Chloro-7-[(3S*)-1-{4-[1-({1-[2-(2,6-dioxopiperidin-3-yl)-1-oxo-2,3-dihydro-1H-isoindol-5-yl]piperidin-4-yl}methyl)piperidin-4-yl]phenyl}piperidin-3-yl]-1H-indole-3-carbonitrile] | > 3000 nM | – | > 3000 nM | – | – | –
4 | COc1nc(N2CCC(CN3CCC(c4ccc(N5CCCC(c6ccc(Cl)c7c(C#N)c[nH]c67)C5)cc4)CC3)CC2)cc2c1C(=O)N(C1CCC(=O)NC1=O)C2 (single isomer, unassigned) [Example 98, 4-Chloro-7-[(3R*)-1-{4-[1-({1-[2-(2,6-dioxopiperidin-3-yl)-4-methoxy-3-oxo-2,3-dihydro-1H-pyrrolo[3,4-c]pyridin-6-yl]piperidin-4-yl}methyl)piperidin-4-yl]phenyl}piperidin-3-yl]-1H-indole-3-carbonitrile] | 90 nM | 40% | 15 nM | 83% | – | –
5 | N#Cc1c[nH]c2c(N3CCCC(c4ccc(N5CCC(CN6CCC(n7ccc8c(N9CCC(=O)NC9=O)cccc87)CC6)CC5)nc4)C3)ccc(Cl)c12 (single isomer, unassigned) [Example 115, 4-Chloro-7-[(3S*)-3-{6-[4-({4-[4-(2,4-dioxo-1,3-diazinan-1-yl)-1H-indol-1-yl]piperidin-1-yl}methyl)piperidin-1-yl]pyridin-3-yl}piperidin-1-yl]-1H-indole-3-carbonitrile] | 14 nM | 99% | 13 nM | 102% | – | –
6 | N#Cc1c[nH]c2c(N3CCCC(c4ccc(N5CCC(CN6CCC(n7ccc8c(N9CCC(=O)NC9=O)cccc87)CC6)CC5)nc4)C3)ccc(Cl)c12 (single isomer, unassigned) [Example 116, 4-Chloro-7-[(3R*)-3-{6-[4-({4-[4-(2,4-dioxo-1,3-diazinan-1-yl)-1H-indol-1-yl]piperidin-1-yl}methyl)piperidin-1-yl]pyridin-3-yl}piperidin-1-yl]-1H-indole-3-carbonitrile] | 11 nM | – | 23 nM | – | 103% | 97%
7 | N#Cc1c[nH]c2c(N3CCOC(c4ccc(N5CCC(CN6CCC(n7ccc8c(N9CCC(=O)NC9=O)cccc87)CC6)CC5)cc4)C3)ccc(Cl)c12 (single isomer, unassigned) [Example 117, 4-Chloro-7-[(2S*)-2-{4-[4-({4-[4-(2,4-dioxo-1,3-diazinan-1-yl)-1H-indol-1-yl]piperidin-1-yl}methyl)piperidin-1-yl]phenyl}morpholin-4-yl]-1H-indole-3-carbonitrile] | 17 nM | 89% | 363 nM | 84% | – | –
8 | N#Cc1c[nH]c2c(N3CCOC(c4ccc(N5CCC(CN6CCC(n7ccc8c(N9CCC(=O)NC9=O)cccc87)CC6)CC5)cc4)C3)ccc(Cl)c12 (single isomer, unassigned) [Example 118, 4-Chloro-7-[(2R*)-2-{4-[4-({4-[4-(2,4-dioxo-1,3-diazinan-1-yl)-1H-indol-1-yl]piperidin-1-yl}methyl)piperidin-1-yl]phenyl}morpholin-4-yl]-1H-indole-3-carbonitrile] | 24 nM | – | 2300 nM | – | 92% | 100%
9 | N#Cc1n[nH]c2c(N3CCOC(c4ccc(N5CCC(CN6CCC(n7ccc8c(N9CCC(=O)NC9=O)cccc87)CC6)CC5)cc4)C3)ccc(Cl)c12 (single isomer, unassigned) [Example 119, 4-Chloro-7-[(2S*)-2-{4-[4-({4-[4-(2,4-dioxo-1,3-diazinan-1-yl)-1H-indol-1-yl]piperidin-1-yl}methyl)piperidin-1-yl]phenyl}morpholin-4-yl]-1H-indazole-3-carbonitrile] | 6 nM | 99% | 14 nM | 103% | – | –
10 | N#Cc1n[nH]c2c(N3CCOC(c4ccc(N5CCC(CN6CCC(n7ccc8c(N9CCC(=O)NC9=O)cccc87)CC6)CC5)cc4)C3)ccc(Cl)c12 (single isomer, unassigned) [Example 120, 4-Chloro-7-[(2R*)-2-{4-[4-({4-[4-(2,4-dioxo-1,3-diazinan-1-yl)-1H-indol-1-yl]piperidin-1-yl}methyl)piperidin-1-yl]phenyl}morpholin-4-yl]-1H-indazole-3-carbonitrile] | 13 nM | – | 40 nM | – | 101% | 90%
11 | N#Cc1c[nH]c2c(N3CCCC(c4ccc(N5CCC(CN6CCC(n7ccc8c(N9CCC(=O)NC9=O)cccc87)CC6)CC5)nn4)C3)ccc(Cl)c12 (single isomer, unassigned) [Example 121, 4-Chloro-7-[(3R*)-3-{6-[4-({4-[4-(2,4-dioxo-1,3-diazinan-1-yl)-1H-indol-1-yl]piperidin-1-yl}methyl)piperidin-1-yl]pyridazin-3-yl}piperidin-1-yl]-1H-indole-3-carbonitrile] | 18 nM | 81% | 3100 nM | – | – | 98%
